Patent publication US7863239B2, “Binding compounds, immunogenic compounds and peptidomimetics” (Pepscan Systems B.V., priority 2005, dated 2011)
Entries after “also recorded” stand apart in the source; their conditions may differ. *1 amine or outer side, *2 acyl side, *3 side chain or, on linkers, in order; H or OH if unused. Bridges are numbered along the chain shown (N, C = ends). Where no end group is shown, it is not given here. T4 = 1,2,4,5-tetrabromodurene scaffold; mXylylene = c1cc(C[*:1])cc(C[*:2])c1

Assays:
[1] = test system: FSH; experiment: Vaccination of rats with FSH-derived peptides, antisera analyzed in FSH-binding ELISA; conditions: rat, in vivo
Procedure: Peptides were synthesized by solid-phase peptide synthesis using a 4-(2′,4′-dimethoxyphenyl-Fmoc-aminomethyl)-phenoxy (RinkAmide) resin (BACHEM, Germany) on a Syro-synthesizer (MultiSynTech, Germany). All amino acids were purchased and used as N-alpha-(Fmoc) protected with side-chain functionalities protected as N-t-Boc (KW), O-t-Bu (DESTY), N-Trt (HNQ), S-Trt (C), or N-Pbf (R) groups. A coupling protocol using a 6.5-fold excess of HBTU/HOBt/amino acid/DIPEA (1:1:1:2) in NMP with a 30 min. activation time using double couplings was employed. […] Subsequently, female Wistar rats were immunized on day 0 with 400 uL of a ˜2.5 mg/mL of the peptide or peptide-T-construct in PBS/CFA 1:1 (v/v) (PBS=Phosphate-Buffered Saline, CFA=Complete Freund's Adjuvance), followed by a booster (same quantity and concentration) at 4 weeks. Subsequently, the anti-peptide titers were determined after 6 weeks to check for immune response and finally the rats were bleeded after 8 weeks and the antisera collected. Antisera were analyzed in an FSH-binding ELISA (Greiner, PS; GDA-coating with 1 μg/mL of FSH (Biotrend)) using 2,2′-azine-di(ethylbenzthiazoline sulfonate) (ABTS) in combination with a peroxidase-labeled Goat-anti-rat serum as second antibody. […]

[2] = test system: anti-CCR5 antibody 2D7; experiment: Screening of peptide microarrays with anti-CCR5 antibody 2D7; format: binding; conditions: absorbance at 405 nm measured using a CCD-camera; for 2D7 (0.1 μg/ml): mAb 2D7 at 0.1 μg/ml on peptide microarray; for 2D7 (1 μg/ml): mAb 2D7 at 1 μg/ml on peptide microarray; for 2D7 (10 μg/ml): mAb 2D7 at 10 μg/ml on peptide microarray
Procedure: Grafting of the polypropylene support with polyacrylic acid was performed by irradiating the support in a 6% acrylic acid solution containing CUS04 using gamma radiation at a dose of 12 kGy. The grafted solid support containing carboxylic acid groups was subsequently reacted with t-butyloxycarbonyl-hexamethylenediamine (Boc-HMDA) using dicyclohexylcarbodiimide (DCC) with N-hydroxybenzotriazole (HOBt) and subsequent cleavage of the Boc-groups using trifluoroacetic acid (TFA). The peptides were synthesized using standard Fmoc-chemistry and, after acylation, deprotected by reaction with TFA (15 ml/g resin) containing 13.3% (w) phenol, 5% (v) thioanisole, 2.5% (v) 1,2-ethanedithiol, and 5% (v) milliQ-H2O for 2-4 hrs at RT. After washing 3× with H2O, the peptide microarrays were treated with excess of a 1.0 mM solution of either mP2 or T3 in 20 mM amm. bicarbonate (pH 7.8)/acetonitril (1:1 v/v) for 30-60 min. at room temperature, followed by 3× washing with 50% ACN/H2O. Then, the microarrays were washed with excess of millipore H2O and sonicated in disrupt-buffer (1% SDS/0.1% β-mercaptoethanol (BME) in phosphate buffered saline (PBS), pH 7.2) at 70° C. for 30 min. followed by sonication in millipore H2O for another 45 min. Synthese Van Scaffolds: The scaffolds are commercially available by Aldrich. Screening of Micro-Arrays with Antibodies Microarrays were pretreated with PBS for 30 min. followed by precoating with incubation buffer (PBS containing 5% ovalbumin, 5% horse serum and 1% Tween-80) for 1 hour. Then, the microarrays were incubated with mAb (typically 1/1000, diluted in incubation buffer) overnight at 4° C. After washing (3×10 min.) with PBS/Tween-80 (0.05%), the peptides were incubated with peroxidase labeled rabbit anti-mouse antibody for 1 hr at 25° C. (rampo, 1/1000; Dako, Glostrup, Denmark) and subsequently, after washing again (3×10 min.) with PBS/Tween-80 (0.05%), incubated with the peroxidase substrate 2,2′-azino-di-3-ethylbenzthiazoline sulfonate (ABTS; 50 mg in 100 ml 0.1M citric acid-sodium phosphate (McIlvaine) buffer (pH 4.0) containing 20 ul 30% H2O2). After 1 h the absorbance (at 405 nm) was measured using a CCD-camera (XC-77RR, Sony, Japan). Bound mAb was removed by sonication in disrupt-buffer as described above. The micro-arrays were re-used for screening approximately 10-15 times. CCR5 CCR5 is a […] co-receptor that is used by HIV for cellular entry. Antibodies specifically directed against CCR5 would therefore be suitable for counteracting cellular entry by HIV. However, immunization with whole CCR5 is problematic since CCR5 is a transmembrane protein. In order to be capable of eliciting CCR5-specific antibodies, immunogenic compounds based on CCR5 are therefore desired. In order to design suitable test compounds, 4 CCR5 sequences were taken into account: one N-terminus domain (Nt) and three extracellular loop domains extended with about 1-6 adjacent amino acid residues of the transmembrane domains (N-terminally as well as C-terminally). These extracellular loop domains are called e1, e2 and e3. The primary sequences of the considered domains are as follows (starting N-terminally):
In the first series of peptides (first row of the above Table), the C-terminal amino acids K, I, N, V, K, Q, I, and A of the Nt sequence were selected. Subsequently, N-terminal flanking sequences with a length of 21 amino acid residues were selected. […] Subsequently, peptides were produced containing one of these flanking sequences. Likewise, in the second series of peptides (second row of the above Table), the C-terminal amino acids P, C, Q, K, I, N, V and K of the Nt sequence were selected. Subsequently, N-terminal flanking sequences with a length of 18 amino acid residues were selected. […] Subsequently, peptides were produced containing one of these flanking sequences. […]

Substance | immune response against native FSH in rats (in words) [1] | immune response against native FSH in rats (in words) ([1]; listed as TFKELVYETCRVPGAAHHADSLCTYPVATQAH cyclized onto m-T2) | 2D7 (0.1 μg/ml) [2] | 2D7 (1 μg/ml) [2] | 2D7 (10 μg/ml) [2]
*KIQKTATFKELVYETCRVPGAAHHADSLCTYPVATQAHAGK# (SEQ ID NO: 120) T4 (KIQKTATFKELVYETCRVPGAAHHADSLCTYPVATQAHAGK-NH2; linker 16-29 via T4 (inferred)) [No. 9 (Table 4B), FSH-derived CLIPS peptide] | Good results |  |  |  | 
*TFKELVYETCRVPGAAHHADSLCTYPVATQAH# (SEQ ID NO: 119) + m-T2 (TFKELVYETCRVPGAAHHADSLCTYPVATQAH-NH2; linker 10-23 via mXylylene (inferred)) [No. 4 (Table 4B), FSH-derived CLIPS peptide] |  | production of antibodies that are reactive with native FSH; also recorded: very high antibody titre |  |  | 
CAQWDFGNCQKEGLHYTC (SEQ ID NO: 109) (not fully specified; bound to P2 or T3 scaffold) [compound 1158] |  |  | 132 | 416 | 2377
CFGNTMGGGRSQKEGLHYTC (SEQ ID NO: 108) (not fully specified; bound to P2 or T3 scaffold) [compound 719] |  |  | 113 | 678 | 2819
CNTMGGGRSQKEGLHYTC (SEQ ID NO: 106) (not fully specified; bound to P2 or T3 scaffold) [compound 702] |  |  | 68 | 1580 | 2787
CQKEGLHYC (SEQ ID NO: 102) (not fully specified; bound to P2 or T3 scaffold) [compound 443] |  |  | 148 | 2636 | 3090
CQKEGLHYTC (SEQ ID NO: 101) (not fully specified; bound to P2 or T3 scaffold) [compound 447] |  |  | 261 | 2706 | 2943
CQWDFGNTCQKEGLHYTC (SEQ ID NO: 107) (not fully specified; bound to P2 or T3 scaffold) [compound 1159] |  |  | 213 | 1153 | 2636
CRSQKEGLHYTC (SEQ ID NO: 105) [compound 450] |  |  | 107 | 2364 | 2852
CSQKEGLHYTC (SEQ ID NO: 103) (not fully specified; bound to P2 or T3 scaffold) [compound 449] |  |  | 99 | 2606 | 2889
CWDFGNTMCQKEGLHYTC (SEQ ID NO: 104) (not fully specified; bound to P2 or T3 scaffold) [compound 1160] |  |  | 315 | 2469 | 2765
